From paper PMC10022191, “Safety, tolerability, pharmacokinetics, and antiviral activity of the novel core protein allosteric modulator ZM-H1505R (Canocapavir) in chronic hepatitis B patients: a randomized multiple-dose escalation trial” (BMC Medicine, 2023)
Entries after “also recorded” stand apart in the source; their conditions may differ.

Assay: phase 1b trial: adverse reactions and tolerability in CHB patients
Type: in vivo, human
Protocol: This was a randomized, open-label, placebo-controlled, phase 1b study (Clinical Trial Registration Number: NCT05470829; Chinese Clinical Trial Registration Number: CTR20210686), which was conducted at the Phase I Clinical Research Center, The First Hospital of Jilin University (Jilin, China), during the period from May to November of 2021. In order to minimize the safety risk of Canocapavir, an adaptive ascending dosing strategy was adopted for Canocapavir treatment in this study. The second and third assigned doses were initiated only after the safety data from the previous dose was reviewed and determined to be safe by the Principal Investigator and the Sponsor on day 8 postdosing (post drug administration days). Canocapavir was administered at the Clinical Research Center on days 1–8 and day 28 and at home on days 9–27 under the same conditions (fixed administration time and fasting condition). Patients were required to visit the facility for follow-up on days 15, 22, 27, 43 ± 1, and 57 ± 2 postdosing. The study protocol and informed consent forms were prepared according to the principles of the Declaration of Helsinki. The study protocol was approved by the Institutional Review Board of the First Hospital of Jilin University (approval number: 20Y201-006). All recruited patients provided written informed consent before participating in any study-related procedures.
A total of 30 CHB patients were recruited in this study and were randomly assigned into three cohorts (N = 10, each). In these three cohorts, the patients (in a ratio of 4:1) received 50, 100, or 200 mg of Canocapavir or placebo once a day for 28 consecutive days under fasting conditions, followed by a 28-day follow-up (Fig. 1). The patients, care providers, and those assessing outcomes were blinded during the study. This random process was completed in an electronic data capture system, and the details are shown in Additional file 1.
To examine possible adverse events (AEs) and adverse reactions (an adverse event is definitely, probably, or possibly related to the drug) in this study, the recruited patients underwent regular clinical laboratory testing, 12-lead electrocardiograms, examination of vital signs, abdominal ultrasound, and regular physical examinations, using the baseline data as a control. The severity of AEs and laboratory abnormalities were graded according to the Common Terminology Criteria for Adverse Events (CTCAE), version 5.0, which defines toxicity criteria. The AEs were coded using the Medical Dictionary for Regulatory Activities, version 24.1 (McLean, VA, USA).

SMILES: O=C1CO[C@H](c2cn(-c3ccc(Br)cc3)nc2-c2ccc(F)cc2)N1CCc1ccc2[nH]c(=O)[nH]c2c1 [Canocapavir]
- Increased aspartate aminotransferase, cases (100 mg q.d., 28 days): 2 case
- Increased aspartate aminotransferase, grade I, number of subjects (100 mg q.d., 28 days): 2 n
- Increased aspartate aminotransferase, grade I, percent of subjects (100 mg q.d., 28 days): 25.00%
- Increased aspartate aminotransferase, grade II, number of subjects (100 mg q.d., 28 days): 0 n
- Increased aspartate aminotransferase, grade II, percent of subjects (100 mg q.d., 28 days): 0%
- Increased aspartate aminotransferase, number of subjects (%) (100 mg q.d., 28 days): 2 (25) n (%)
- Increased bilirubin, cases (100 mg q.d., 28 days): 0 case
- Increased bilirubin, grade I, number of subjects (100 mg q.d., 28 days): 0 n
- Increased bilirubin, grade I, percent of subjects (100 mg q.d., 28 days): 0%
- Increased bilirubin, number of subjects (%) (100 mg q.d., 28 days): 0 (0) n (%)
- Increased creatinine, cases (100 mg q.d., 28 days): 0 case
- Increased creatinine, grade I, number of subjects (100 mg q.d., 28 days): 0 n
- Increased creatinine, grade I, percent of subjects (100 mg q.d., 28 days): 0%
- Increased creatinine, number of subjects (%) (100 mg q.d., 28 days): 0 (0) n (%)
- Increased γ-glutamyltransferase, cases (100 mg q.d., 28 days): 1 case
- Increased γ-glutamyltransferase, grade I, number of subjects (100 mg q.d., 28 days): 1 n
- Increased γ-glutamyltransferase, grade I, percent of subjects (100 mg q.d., 28 days): 12.50%
- Increased γ-glutamyltransferase, number of subjects (%) (100 mg q.d., 28 days): 1 (12.5) n (%)
- Rash, cases (100 mg q.d., 28 days): 1 case
- Rash, grade I, number of subjects (100 mg q.d., 28 days): 1 n
- Rash, grade I, percent of subjects (100 mg q.d., 28 days): 12.50%
- Rash, number of subjects (%) (100 mg q.d., 28 days): 1 (12.5) n (%)
- Total adverse reactions, cases (100 mg q.d., 28 days): 10 case
- Total adverse reactions, number of subjects (%) (100 mg q.d., 28 days): 5 (62.5) n (%)
- maximum ALT level, patient E3010 (100 mg q.d., day 15, baseline 144.9 U/L): 385.4 U/L
- Adverse reactions, grade I, number of subjects (200 mg q.d., 28 days): 3 n
- Adverse reactions, grade I, percent of subjects (200 mg q.d., 28 days): 37.50%
- Adverse reactions, grade II, number of subjects (200 mg q.d., 28 days): 0 n
- Adverse reactions, grade II, percent of subjects (200 mg q.d., 28 days): 0%
- Adverse reactions, grade III, number of subjects (200 mg q.d., 28 days): 1 n
- Adverse reactions, grade III, percent of subjects (200 mg q.d., 28 days): 12.50%
- Adverse reactions, total (all grades), number of subjects (200 mg q.d., 28 days): 4 n
- Adverse reactions, total (all grades), percent of subjects (200 mg q.d., 28 days): 50.0%
- Decreased neutrophil count, cases (200 mg q.d., 28 days): 0 case
- Decreased neutrophil count, grade II, number of subjects (200 mg q.d., 28 days): 0 n
- Decreased neutrophil count, grade II, percent of subjects (200 mg q.d., 28 days): 0%
- Decreased neutrophil count, grade III, number of subjects (200 mg q.d., 28 days): 0 n
- Decreased neutrophil count, grade III, percent of subjects (200 mg q.d., 28 days): 0%
- Decreased neutrophil count, number of subjects (%) (200 mg q.d., 28 days): 0 (0) n (%)
- Decreased platelet count, cases (200 mg q.d., 28 days): 0 case
- Decreased platelet count, grade I, number of subjects (200 mg q.d., 28 days): 0 n
- Decreased platelet count, grade I, percent of subjects (200 mg q.d., 28 days): 0%
- Decreased platelet count, number of subjects (%) (200 mg q.d., 28 days): 0 (0) n (%)
- Decreased serum phosphorus, cases (200 mg q.d., 28 days): 1 case
- Decreased serum phosphorus, grade I, number of subjects (200 mg q.d., 28 days): 1 n
- Decreased serum phosphorus, grade I, percent of subjects (200 mg q.d., 28 days): 12.50%
- Decreased serum phosphorus, number of subjects (%) (200 mg q.d., 28 days): 1 (12.5) n (%)
- Decreased white blood cell count, cases (200 mg q.d., 28 days): 0 case
- Decreased white blood cell count, grade II, number of subjects (200 mg q.d., 28 days): 0 n
- Decreased white blood cell count, grade II, percent of subjects (200 mg q.d., 28 days): 0%
- Decreased white blood cell count, number of subjects (%) (200 mg q.d., 28 days): 0 (0) n (%)
- Hypertriglyceridemia, cases (200 mg q.d., 28 days): 2 case
- Hypertriglyceridemia, grade III, percent of subjects (200 mg q.d., 28 days): 12.50%
- Hypertriglyceridemia, number of subjects (%) (200 mg q.d., 28 days): 1 (12.5) n (%)
- Increased alanine aminotransferase, cases (200 mg q.d., 28 days): 3 case
- Increased alanine aminotransferase, grade I, number of subjects (200 mg q.d., 28 days): 3 n
- Increased alanine aminotransferase, grade I, percent of subjects (200 mg q.d., 28 days): 37.50%
- Increased alanine aminotransferase, grade II, number of subjects (200 mg q.d., 28 days): 0 n
- Increased alanine aminotransferase, grade II, percent of subjects (200 mg q.d., 28 days): 0%
- Increased alanine aminotransferase, number of subjects (%) (200 mg q.d., 28 days): 3 (37.5) n (%)
- Increased aspartate aminotransferase, cases (200 mg q.d., 28 days): 1 case
- Increased aspartate aminotransferase, grade I, number of subjects (200 mg q.d., 28 days): 1 n
- Increased aspartate aminotransferase, grade I, percent of subjects (200 mg q.d., 28 days): 12.50%
- Increased aspartate aminotransferase, grade II, number of subjects (200 mg q.d., 28 days): 0 n
- Increased aspartate aminotransferase, grade II, percent of subjects (200 mg q.d., 28 days): 0%
- Increased aspartate aminotransferase, number of subjects (%) (200 mg q.d., 28 days): 1 (12.5) n (%)
- Increased bilirubin, cases (200 mg q.d., 28 days): 1 case
- Increased bilirubin, grade I, number of subjects (200 mg q.d., 28 days): 1 n
- Increased bilirubin, grade I, percent of subjects (200 mg q.d., 28 days): 12.50%
- Increased bilirubin, number of subjects (%) (200 mg q.d., 28 days): 1 (12.5) n (%)
- Increased creatinine, cases (200 mg q.d., 28 days): 0 case
- Increased creatinine, grade I, number of subjects (200 mg q.d., 28 days): 0 n
- Increased creatinine, grade I, percent of subjects (200 mg q.d., 28 days): 0%
- Increased creatinine, number of subjects (%) (200 mg q.d., 28 days): 0 (0) n (%)
- Increased γ-glutamyltransferase, cases (200 mg q.d., 28 days): 0 case
- Increased γ-glutamyltransferase, grade I, number of subjects (200 mg q.d., 28 days): 0 n
- Increased γ-glutamyltransferase, grade I, percent of subjects (200 mg q.d., 28 days): 0%
- Increased γ-glutamyltransferase, number of subjects (%) (200 mg q.d., 28 days): 0 (0) n (%)
- Rash, cases (200 mg q.d., 28 days): 0 case
- Rash, grade I, number of subjects (200 mg q.d., 28 days): 0 n
- Rash, grade I, percent of subjects (200 mg q.d., 28 days): 0%
- Rash, number of subjects (%) (200 mg q.d., 28 days): 0 (0) n (%)
- Total adverse reactions, cases (200 mg q.d., 28 days): 8 case
- Total adverse reactions, number of subjects (%) (200 mg q.d., 28 days): 4 (50) n (%)
- relation of incidence of adverse reactions to dose (50–200 mg q.d.): not significantly correlated to its increased dose
- safety and tolerability (50–200 mg q.d., 28 days): well tolerated; also recorded: safe and tolerated
- serious adverse events (50–200 mg q.d., 28 days): no serious adverse events; also recorded: No serious AE
- withdrawal from the study (50–200 mg q.d., 28 days): no patients withdrew
- patients with a grade I adverse reaction (elevation of ALT or AST) (across dose cohorts): 12.5–37.5%
- cases of AEs in the Canocapavir cohort (all doses, 24 patients): 38 cases
- cases of adverse reactions in the Canocapavir cohort (all doses, 24 patients): 24 cases
- patients with AEs in the Canocapavir cohort (all doses, 24 patients): 75%
- patients with adverse reactions in the Canocapavir cohort (all doses, 24 patients): 50%
